Experimental data taken from US8637455B2, “Compositions and methods for delivery of glycopeptide antibiotics to medical device surfaces” (Affinergy, LLC, priority 2007, dated 2014).
*1 amine or outer side, *2 acyl side, *3 side chain or, on linkers, in order; H or OH if unused. Bridges are numbered along the chain shown (N, C = ends). Where no end group is shown, it is not given here. [ ]: non-standard residue; d: D form. The star is where a group is joined. (miniPEG)2 = linker of two mini-PEG units, (HN—CH2—CH2—O—CH2—CH2—O—CH2—C═O)2, O=C(COCCOCCN[*:1])NCCOCCOCC(=O)[*:2]; Myristoyl = CCCCCCCCCCCCCC(=O)*; Aun = NCCCCCCCCCCC(=O)O; AEEA = NCCOCCOCC(=O)O; Ahx = NCCCCCC(=O)O

Legend:
[1] = Binding of alkaline-phosphatase linked peptides to immobilized biotinylated vancomycin; details: absorbance at 405 nm
Excerpt: From the peptide amino acid sequence […] (SEQ ID NO: 1) additional peptides were designed and expressed in the bacterial expression system described herein to further evaluate structure-function relationships. A truncated peptide comprising the amino acid sequence of SEQ ID NO:9 (STCLIDMYGVCH) was expressed and compared to a peptide comprising SEQ ID NO:1 for binding affinity for glycopeptide antibiotic. Also produced were a dimer of this truncated peptide (SEQ ID NO:10; […]), a D to A substitution (SEQ ID NO:11; STCLIAMYGVCH), a D to E substitution (SEQ ID NO:12; STCLIEMYGVCH), and a G to S substitution (SEQ ID NO:13; STCLIDMYSVCH). Relative binding strengths of these peptides and of other representative peptides to glycopeptide antibiotic were determined by EC50 values for binding to vancomycin or other glycopeptide antibiotic.
A typical binding assay for glycopeptide antibiotic was performed according to the following procedure. The concentrations of the alkaline-phosphatase linked variant peptides were normalized to equal levels based on the alkaline-phosphatase activity as determined in a kinetic assay with the alkaline-phosphatase specific chromogenic substrate p-nitrophenyl phosphate (p-NPP). A streptavidin coated microtiter plate was coated with biotinylated vancomycin. Serial dilutions of normalized alkaline-phosphatase linked peptides were allowed to bind to the immobilized vancomycin and detected by addition of the alkaline-phosphatase specific chromogenic substrate p-NPP. Relative affinity for peptide binding to the immobilized vancomycin was determined by measuring the absorbance at 405 nm of the colored product of the alkaline phosphatase reaction. […] EC50 values for the synthetic peptides binding to vancomycin were determined as described in Example 1 and are shown in Table 3. Preferred are peptides that bind to glycopeptide antibiotic with binding affinity of EC50 of less than or equal to about 1 μM, and more preferably, in the nanomolar range (e.g., <0.1 μM).

[2] = system: Staphylococcus aureus strain MZ100; assay: In vitro infection assay on titanium beads, colony counts; assay type: cell-based; details: peptide 5 μM + vancomycin 100 μM
Description: To illustrate the antibacterial activity of the peptide compositions, an in vitro infection assay was performed. Briefly, a surface material was contacted with one of the peptide compositions such that the peptide binds to the surface material. The peptide composition can have glycopeptide antibiotic already bound thereto at the time of contacting the peptide with the surface material, or the glycopeptide antibiotic can be contacted with the peptide in a step subsequent to binding the peptide composition to the surface material. The surface material was washed to remove unbound glycopeptide antibiotic, and then contacted with bacterial cells (added from a culture in log phase growth) and incubated to promote bacterial growth. The surface material was washed, and any bacterial cells colonizing the surface material removed and plated to assess bacterial growth.
In one example, Staphylococcus aureus strain MZ100 was used as the representative bacterial cells. First, as a representative surface material, titanium beads were sterilized in acetone in a sonication bath, and then air dried in a sterile hood. The beads were individually placed in sterilized microfuge tubes (one bead per tube). […] The next day, the plates were examined for bacterial growth, and the number of bacterial colonies was quantified per plate.

[3] = system: S. aureus; assay: Bacterial growth with loaded titanium beads, optical density at 600 nm; assay type: cell-based; details: peptide 10 μM + vancomycin 200 μM, 37° C. for 18 hours
Description: In another experiment, antimicrobial activity of the peptide compositions was measured as follows. Titanium beads were placed into wells of a 96 well plate. To each well was added a 10 μM of peptide composition comprising at least one surface-binding peptide coupled to at least one glycopeptide antibiotic binding peptide and vancomycin at 200 μM. The appropriate negative controls were also included. The plate was incubated for 1 hour at 20° C., and then the wells and beads were washed 4 times with buffer. After washing, the beads were transferred to the well of a plate containing S. aureus in log phase growth and incubated at 37° C. for 18 hours. Bacterial growth was assessed by reading optical density at 600 nm.

[4] = Vancomycin loading on titanium surface by peptide compositions (HPLC assay); assay type: binding; details: peptide at 10 μM; vancomycin 200 μM; titanium beads; 30 minutes, 4 washes
Description: In one experiment, titanium beads were placed into wells of a 96 well plate. To each well was added a range of concentrations (1-50 μM) of peptide composition comprising at least one surface-binding peptide coupled to at least one glycopeptide antibiotic binding peptide and vancomycin at 200 μM. The appropriate negative controls were also included. The plate was incubated for 30 minutes, and then the wells and beads were washed 4 times with buffer. After washing, 10 mM HCl was added to each well to elute remaining vancomycin from the metal bead. Bound vancomycin was measured by HPLC assay at detection wavelength 214 nm. […] In addition, binding assays performed using stainless steel rather than titanium beads as a representative surface material yielded similar results.

[5] = system: S. aureus MZ100; assay: In vitro infection model on titanium pins, colony counts; assay type: cell-based; details: composition 5 μM + vancomycin 100 μM, two hours with S. aureus MZ100
Description: Acetone-sterilized titanium pins (1 mm diameter, 12 mm long) were first washed in PBS. These pins were then incubated in a solution (PBS) containing the respective composition (5 μM)+vancomycin (100 μM) for 15 minutes at room temperature, with intermittent inversion for coating. Each pin was then washed extensively in PBS and placed in 30 μL of S. aureus MZ100 cultured at 10^6 colony forming units (cfu) per mL, according to methods above. The coated pins were then inoculated in 30 mm lengths of 1.5 mm diameter silicone tubing, with closed ends. After incubation for two hours with shaking, the pin was placed in a new tube containing 1 mL PBS. After inverting several times, PBS was aspirated, and replaced with a fresh 1 mL of PBS. The pins were then sonicated at 20 kHz for four cycles of 15 seconds each. Supernatants (100 μL) and dilutions were plated on trypticase soy agar (TSA) plates, incubated for 24 hours at 37° C., and colonies were counted. An assay control included the same steps of the infection model, except that the pin is uncoated pin (i.e., without composition according to the presently disclosed subject matter bound thereto) (“Control”). As representative examples, compositions comprising the amino acid sequences of SEQ ID NOs: 125 and 126 were tested for antimicrobial activity using the in vitro infection model (see, Table 7, “A” & “B”, respectively).

[6] = Binding assay of peptide for gentamycin; details: gentamycin (an aminoglycoside antibiotic); similar assay format as for vancomycin
Description: Using a similar binding assay format as described herein for vancomycin, the ability of a peptide comprising the amino acid sequence of SEQ ID NO: 1 to bind gentamycin (an aminoglycoside antibiotic) was determined.

[7] = system: binding between vancomycin and a peptide comprising the amino acid sequence of SEQ ID NO:1; assay: Inhibition by Lys-D-Ala-D-Ala of specific binding between vancomycin and peptide SEQ ID NO:1
Description: As an example, illustrated is the inhibition by Lys-D-Ala-D-Ala of specific binding between vancomycin and a peptide comprising the amino acid sequence of SEQ ID NO:1. To the wells of a 96 well plate coated with streptavidin was added 100 μl of a 0.2 μM solution of biotinylated peptide in buffer-T. After incubation, the wells were blocked by adding 200 μl of a 0.5 mM solution of biotin in buffer-T. The plates were then washed three times with buffer-T. Serial dilutions of Lys-D-Ala-D-Ala were prepared, and added individually to the wells such that Lys-D-Ala-D-Ala ranged in a final concentration of from about 1 μM to about 200 μM (in a volume of 35 μl). Also added to each well was 35 μl of biotinylated vancomycin (20 nM final concentration), and the plate was incubated at 30 minutes for room temperature. The wells were then washed three times with buffer-T, followed by the addition of 100 μl of streptavidin-alkaline phosphatase conjugate (1 mg/ml diluted 1:500 in buffer-T). Following a 30 minute incubation, the wells were washed five times with buffer-T. Added to each well was 100 μl of pNPP, followed by colorimetric detection after 12 minutes at an absorbance of 405 nm.

11 (STCLIAMYGVCH) [compound 11]
glycopeptide antibiotic binding [1]: no detectable glycopeptide antibiotic binding

12 (STCLIEMYGVCH) [compound 12]
glycopeptide antibiotic binding [1]: no detectable glycopeptide antibiotic binding

13 (STCLIDMYSVCH) [compound 13]
glycopeptide antibiotic binding [1]: no detectable glycopeptide antibiotic binding

119 (NHTISKNHKKKNKNSNKTR) [compound 119]
bacterial growth on the plates [2]: completely inhibited

130 (SSCLIDIYGVCHNFDAY[AEEA][AEEA]HKKNNPKKKNKTRGSSK; disulfide 3-11 (inferred)) [compound 130]
inhibition of bacterial growth [3]: complete inhibition | Picomoles vancomycin/cm^2 [4]: 83 Picomoles vancomycin/cm^2

131 (SSCLIDIYGVCHNFDAY[AEEA][AEEA]SSHRTNHKKNNPKKKNKTRGSSGK; disulfide 3-11 (inferred)) [compound 131]
inhibition of bacterial growth [3]: complete inhibition | Picomoles vancomycin/cm^2 [4]: 76 Picomoles vancomycin/cm^2

AUD-AUD-AUD-SSCLIDIYGVCHNFDAY-(miniPEG)2-HKKNNPKKKNKTRGSSK ([Aun][Aun][Aun]SSCLIDIYGVCHNFDAY[(miniPEG)2]HKKNNPKKKNKTRGSSK; disulfide 6-14 (inferred)) [SEQ ID NO: 126]
# of bacterial colonies (CFU) [5]: <10 CFU

CLIDMYGVCHNFDGAYDS [compound 1]
binding affinity for gentamycin [6]: lacked significant binding affinity

Lys-D-Ala-D-Ala
inhibition of binding between vancomycin and peptide ([7]; Lys-D-Ala-D-Ala between 100 μM to 200 μM): ~100% | IC50 ([7]; biotinylated vancomycin 20 nM, immobilized peptide SEQ ID NO:1, read-out: concentration of Lys-D-Ala-D-Ala needed to inhibit about 50% of the binding between vancomycin and peptide): ~10 µM

Myr-Ahx-SSCLIDIYGVCHNFDAY-(miniPEG)2-HKKNNPKKKNKTRGSSK ({Myristoyl-Ahx}-SSCLIDIYGVCHNFDAY[(miniPEG)2]HKKNNPKKKNKTRGSSK; disulfide 3-11 (inferred)) [SEQ ID NO: 125]
# of bacterial colonies (CFU) [5]: 100 CFU

NHTISKNHKKKNKNSNKTR [SEQ ID NO: 119]
# of bacterial colonies ([2]; 2 hour incubation with MZ100): 0

STCLIDMYGVCH [compound 9]
glycopeptide antibiotic binding [1]: displayed glycopeptide antibiotic binding

STCLIDMYGVCHSSCLIDMYGVCH [compound 10]
glycopeptide antibiotic binding [1]: displayed glycopeptide antibiotic binding
